Source: patent US8916567B2, “Certain crystalline hydrates, pharmaceutical compositions thereof and methods for preparation and use thereof” (Universal Technology Alliance, Inc., priority 2009, dated 2014)

Assays:
E. feacalis = test: Minimum inhibitory concentration (MIC) in vitro, agar dilution method; format: cell-based; settings: hydrate; for MIC50 / MIC90 / MICrange: E. feacalis (5 strains), clinically isolated
Method in brief: (§1)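 MIC50, MIC90, MIC range and individual MICs derive from CLSI/NCCLS agar dilution testing of 2007-2008 clinical isolates from Sichuan and Beijing. Samples were prepared in DMSO with further dilution in sterile water; vancomycin and linezolid served as reference drugs.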

E. feacium = test: as above; format: cell-based; settings: hydrate; for MIC50 / MIC90 / MICrange: E. feacium (5 strains), clinically isolated
Method in brief: as §1

S. epidermidis MRSE = test: as above; format: cell-based; settings: hydrate; for MIC50 / MIC90 / MICrange: S. ep MRSE (10 strains), clinically isolated
Method in brief: as §1

S. epidermidis MSSE = test: as above; format: cell-based; settings: hydrate; for MIC50 / MIC90 / MICrange: S. ep MSSE (10 strains), clinically isolated
Method in brief: as §1

[1] = system: Staphylococcus aureus MRSA; test: as above; format: cell-based; settings: hydrate; for MIC50 / MIC90 / MICrange: S. MRSA (10 strains), clinically isolated
Method in brief: as §1

[2] = system: Staphylococcus aureus MSSA; test: as above; format: cell-based; settings: hydrate; for MIC50 / MIC90 / MICrange: S. MSSA (11 strains), clinically isolated
Method in brief: as §1

Staphylococcus aureus = test: Minimum inhibitory concentration (MIC) in vitro, agar dilution method, quality control strain; format: cell-based; settings: strain S. AT C C25923 (Table 7 No. 1); hydrate
Method in brief: as §1

[3] = Solubility in different solvents according to Chinese Pharmacopeia (2005 edition); format: physicochemical; settings: for Solubility compared with the anhydride: different solvents; for Result: at the given solute:solvent ratio
Protocol: The solubility of the (S)—[N-3-(3′-fluoro-4′-(4″-phenylpiperazinyl))phenyl-2-oxo-5-oxazolelidinyl]methylacetamide hydrates was tested with different solvents, and the test results are shown in Tables 15-19. The solubility was measured according to Chinese Pharmacopeia (2005 edition).

[4] = strain Efa 116 (Table 8 No. 16)
[5] = strain Efa 907 (Table 8 No. 19)
[6] = strain Efm 171 (Table 8 No. 25)
[7] = strain Efm 197 (Table 8 No. 22)
[8] = strain S. ep MRSE4 (Table 8 No. 9)
[9] = strain S. ep MRSE20 (Table 8 No. 6)
[10] = strain S. ep MRSE87 (Table 8 No. 13)
[11] = strain S. ep MRSE90 (Table 8 No. 10)
[12] = strain S. ep MRSE101 (Table 8 No. 7)
[13] = strain S. ep MRSE105 (Table 8 No. 11)
[14] = strain S. ep MRSE140 (Table 8 No. 14)
[15] = strain S. ep MRSE142 (Table 8 No. 12)
[16] = strain S. ep MRSE210 (Table 8 No. 15)
[17] = strain S. ep MRSE211 (Table 8 No. 8)
[18] = strain S. ep MSSE87 (Table 7 No. 23)
[19] = strain S. ep MSSE88 (Table 8 No. 5)
[20] = strain S. ep MSSE113 (Table 7 No. 24)
[21] = strain S. ep MSSE116 (Table 7 No. 25)
[22] = strain S. ep MSSE118 (Table 8 No. 2)
[23] = strain S. ep MSSE119 (Table 7 No. 27)
[24] = strain S. ep MSSE137 (Table 8 No. 4)
[25] = strain S. ep MSSE140 (Table 8 No. 3)
[26] = strain S. ep MSSE142 (Table 7 No. 26)
[27] = strain S. ep MSSE153 (Table 8 No. 1)
[28] = strain S. MRSA 29 (Table 7 No. 15)
[29] = strain S. MRSA 101 (Table 7 No. 14)
[30] = strain S. MRSA 201 (Table 7 No. 13)
[31] = strain S. MRSA B27 (Table 7 No. 21)
[32] = strain S. MRSA B105 (Table 7 No. 17)
[33] = strain S. MRSA B143 (Table 7 No. 19)
[34] = strain S. MRSA B151 (Table 7 No. 20)
[35] = strain S. MRSA B164 (Table 7 No. 16)
[36] = strain S. MRSA B199 (Table 7 No. 22)
[37] = strain S. MRSA B617 (Table 7 No. 18)
[38] = strain S. MSSA 123 (Table 7 No. 3)
[39] = strain S. MSSA 187 (Table 7 No. 7)
[40] = strain S. MSSA 195 (Table 7 No. 6)
[41] = strain S. MSSA 195 (Table 7 No. 12)
[42] = strain S. MSSA 201 (Table 7 No. 11)
[43] = strain S. MSSA 232 (Table 7 No. 2)
[44] = strain S. MSSA 275 (Table 7 No. 10)
[45] = strain S. MSSA 466 (Table 7 No. 8)
[46] = strain S. MSSA 519 (Table 7 No. 9)
[47] = strain S. MSSA 520 (Table 7 No. 4)
[48] = strain S. MSSA 580 (Table 7 No. 5)

CC(=O)NC[C@H]1CN(c2ccc(N3CCN(c4ccccc4)CC3)c(F)c2)C(=O)O1 [1/12 hydrate, (S)—[N-3-(3′-fluoro-4′-(4″-phenylpiperazinyl))phenyl-2-oxo-5-oxazolidinyl]methyl acetamide 1/12 hydrate]
MIC50 (E. feacalis): 0.125 mg/L
MIC90 (E. feacalis): 0.25 mg/L
MICrange (E. feacalis): 0.06 to 0.25 µg/mL
MIC (E. feacalis; [4]): 0.25 mg/L
MIC (E. feacalis; [5]): 0.06 mg/L
MIC50 (E. feacium): 0.5 mg/L
MIC90 (E. feacium): 1 mg/L
MICrange (E. feacium): 0.25 to 1 µg/mL
MIC (E. feacium; strain Efm 98 (Table 8 No. 21)): 0.25 mg/L
MIC (E. feacium; [6]): 0.5 mg/L
MIC (E. feacium; [7]): 0.5 mg/L
MIC (E. feacium; strain Efm N3 (Table 8 No. 23)): 1 mg/L
MIC (E. feacium; strain Efm N4 (Table 8 No. 24)): 0.5 mg/L
MIC50 (S. epidermidis MRSE): 0.25 mg/L
MIC90 (S. epidermidis MRSE): 0.5 mg/L
MICrange (S. epidermidis MRSE): 0.06 to 0.5 µg/mL
MIC (S. epidermidis MRSE; [8]): 0.125 mg/L
MIC (S. epidermidis MRSE; [9]): 0.25 mg/L
MIC (S. epidermidis MRSE; [10]): 0.25 mg/L
MIC (S. epidermidis MRSE; [11]): 0.125 mg/L
MIC (S. epidermidis MRSE; [12]): 0.06 mg/L
MIC (S. epidermidis MRSE; [13]): 0.25 mg/L
MIC (S. epidermidis MRSE; [14]): 0.5 mg/L
MIC (S. epidermidis MRSE; [15]): 0.25 mg/L
MIC (S. epidermidis MRSE; [16]): 0.25 mg/L
MIC (S. epidermidis MRSE; [17]): 0.25 mg/L
MIC50 (S. epidermidis MSSE): 0.25 mg/L
MIC90 (S. epidermidis MSSE): 0.5 mg/L
MICrange (S. epidermidis MSSE): 0.125 to 0.5 µg/mL
MIC (S. epidermidis MSSE; [18]): 0.125 mg/L
MIC (S. epidermidis MSSE; [19]): 0.5 mg/L
MIC (S. epidermidis MSSE; [20]): 0.25 mg/L
MIC (S. epidermidis MSSE; [21]): 0.125 mg/L
MIC (S. epidermidis MSSE; [22]): 0.5 mg/L
MIC (S. epidermidis MSSE; [23]): 0.125 mg/L
MIC (S. epidermidis MSSE; [24]): 0.5 mg/L
MIC (S. epidermidis MSSE; [25]): 0.5 mg/L
MIC (S. epidermidis MSSE; [26]): 0.5 mg/L
MIC (S. epidermidis MSSE; [27]): 0.5 mg/L
MIC50 [1]: 0.5 mg/L
MIC90 [1]: 0.5 mg/L
MICrange [1]: 0.25 to 0.5 µg/mL
MIC [1, 28]: 1 mg/L
MIC [1, 29]: 0.5 mg/L
MIC [1, 30]: 0.5 mg/L
MIC [1, 31]: 0.5 mg/L
MIC [1, 32]: 0.5 mg/L
MIC [1, 33]: 0.5 mg/L
MIC [1, 34]: 0.5 mg/L
MIC [1, 35]: 0.5 mg/L
MIC [1, 36]: 1 mg/L
MIC [1, 37]: 0.25 mg/L
MIC50 [2]: 0.5 mg/L
MIC90 [2]: 0.5 mg/L
MICrange [2]: 0.25 to 0.5 µg/mL
MIC [2, 38]: 0.5 mg/L
MIC [2, 39]: 0.5 mg/L
MIC [2, 40]: 0.5 mg/L
MIC [2, 41]: 0.5 mg/L
MIC [2, 42]: 0.25 mg/L
MIC [2, 43]: 0.5 mg/L
MIC [2, 44]: 1 mg/L
MIC [2, 45]: 0.25 mg/L
MIC [2, 46]: 0.5 mg/L
MIC [2, 47]: 0.5 mg/L
MIC [2, 48]: 0.25 mg/L
MIC (Staphylococcus aureus): 0.5 mg/L
Solubility compared with the anhydride [3]: sometimes more soluble than the anhydride
Result ([3]; solvent 0.1N Hydrochloric acid): Dissolved
Result ([3]; solvent 0.1N Sodium hydroxide): Insoluble
Result ([3]; solvent Acetonitrile): Dissolved
Result ([3]; solvent Ethanol): Dissolved
Result ([3]; solvent Methanol): Dissolved
Result ([3]; solvent Water, hydrate): Dissolved

CC(=O)NC[C@H]1CN(c2ccc(N3CCN(c4ccccc4)CC3)c(F)c2)C(=O)O1 [⅖ hydrate, (S)—[N-3-(3′-fluoro-4′-(4″-phenylpiperazinyl))phenyl-2-oxo-5-oxazolidinyl]methyl acetamide 2/5 hydrate]
MIC50 (E. feacalis): 0.5 mg/L
MIC90 (E. feacalis): 0.5 mg/L
MICrange (E. feacalis): 0.125 to 0.5 µg/mL
MIC (E. feacalis; [4]): 0.5 mg/L
MIC (E. feacalis; [5]): 0.5 mg/L
MIC (E. feacalis; strain Efa 3006 (Table 8 No. 18)): 0.25 mg/L
MIC (E. feacalis; strain Efa 33748 (Table 8 No. 17)): 0.5 mg/L
MIC50 (E. feacium): 1 mg/L
MIC90 (E. feacium): 1 mg/L
MICrange (E. feacium): 0.5 to 1 µg/mL
MIC (E. feacium; strain Efm 98 (Table 8 No. 21)): 0.5 mg/L
MIC (E. feacium; [6]): 0.5 mg/L
MIC (E. feacium; [7]): 1 mg/L
MIC (E. feacium; strain Efm N3 (Table 8 No. 23)): 1 mg/L
MIC (E. feacium; strain Efm N4 (Table 8 No. 24)): 1 mg/L
MIC50 (S. epidermidis MRSE): 0.5 mg/L
MIC90 (S. epidermidis MRSE): 0.5 mg/L
MICrange (S. epidermidis MRSE): 0.125 to 0.5 µg/mL
MIC (S. epidermidis MRSE; [8]): 0.5 mg/L
MIC (S. epidermidis MRSE; [9]): 0.5 mg/L
MIC (S. epidermidis MRSE; [10]): 0.5 mg/L
MIC (S. epidermidis MRSE; [11]): 0.5 mg/L
MIC (S. epidermidis MRSE; [12]): 0.125 mg/L
MIC (S. epidermidis MRSE; [13]): 0.5 mg/L
MIC (S. epidermidis MRSE; [14]): 0.5 mg/L
MIC (S. epidermidis MRSE; [15]): 0.5 mg/L
MIC (S. epidermidis MRSE; [16]): 0.5 mg/L
MIC (S. epidermidis MRSE; [17]): 0.5 mg/L
MIC50 (S. epidermidis MSSE): 0.5 mg/L
MIC90 (S. epidermidis MSSE): 0.5 mg/L
MICrange (S. epidermidis MSSE): 0.125 to 0.5 µg/mL
MIC (S. epidermidis MSSE; [18]): 0.125 mg/L
MIC (S. epidermidis MSSE; [19]): 0.5 mg/L
MIC (S. epidermidis MSSE; [20]): 0.5 mg/L
MIC (S. epidermidis MSSE; [21]): 0.5 mg/L
MIC (S. epidermidis MSSE; [22]): 0.5 mg/L
MIC (S. epidermidis MSSE; [23]): 0.125 mg/L
MIC (S. epidermidis MSSE; [24]): 0.5 mg/L
MIC (S. epidermidis MSSE; [25]): 0.5 mg/L
MIC (S. epidermidis MSSE; [26]): 0.25 mg/L
MIC (S. epidermidis MSSE; [27]): 0.5 mg/L
MIC50 [1]: 1 mg/L
MIC90 [1]: 0.5 mg/L
MICrange [1]: 0.25 to 0.5 µg/mL
MIC [1, 28]: 0.5 mg/L
MIC [1, 29]: 0.5 mg/L
MIC [1, 30]: 0.5 mg/L
MIC [1, 31]: 0.5 mg/L
MIC [1, 32]: 0.5 mg/L
MIC [1, 33]: 0.5 mg/L
MIC [1, 34]: 0.25 mg/L
MIC [1, 35]: 0.5 mg/L
MIC [1, 36]: 0.5 mg/L
MIC [1, 37]: 0.5 mg/L
MIC50 [2]: 0.5 mg/L
MIC90 [2]: 0.5 mg/L
MICrange [2]: 0.5 to 1 µg/mL
MIC [2, 38]: 0.5 mg/L
MIC [2, 39]: 0.5 mg/L
MIC [2, 40]: 1 mg/L
MIC [2, 41]: 0.5 mg/L
MIC [2, 42]: 0.5 mg/L
MIC [2, 43]: 0.5 mg/L
MIC [2, 44]: 0.5 mg/L
MIC [2, 45]: 0.5 mg/L
MIC [2, 46]: 0.5 mg/L
MIC [2, 47]: 0.5 mg/L
MIC [2, 48]: 0.5 mg/L
MIC (Staphylococcus aureus): 0.5 mg/L
Solubility compared with the anhydride [3]: sometimes more soluble than the anhydride
Result ([3]; solvent 0.1N Hydrochloric acid): Dissolved
Result ([3]; solvent 0.1N Sodium hydroxide): Insoluble
Result ([3]; solvent Acetonitrile): Dissolved
Result ([3]; solvent Ethanol): Dissolved
Result ([3]; solvent Methanol): Dissolved
Result ([3]; solvent Water, hydrate): Dissolved
